Laboratory results published in patent publication US20250163048A1 (Tango Therapeutics, Inc., priority 2022, published 2025).
Where two headings read alike, the source gives them in different places.

Key:
[1] = system: HAP1 MTAP-intact cell line; experiment: SDMA in-cell western assay, HAP1 MTAP-intact; conditions: Homo sapiens
[2] = system: MTAP-deleted cell line; experiment: viability assay for the MTAP-deleted cell line; format: cell-based; conditions: Homo sapiens, HAP1, viability assay
[3] = system: HAP1 MTAP-deleted cell line; experiment: SDMA in-cell western assay, HAP1 MTAP-deleted; conditions: for IC50 / IC90: Homo sapiens; for Hap1 MTAP intact/deleted ratio: IC50 ratio between HAP1 MTAP-intact and HAP1 MTAP-deleted cell line
[4] = HAP1, read-out: Hap1 MTAP intact IC50
[5] = HAP1, read-out: Hap1 MTAP deleted IC50, SDMA in-cell western, HAP1 MTAP-deleted cell line
[6] = HAP1, read-out: Hap1 MTAP deleted IC90, SDMA in-cell western, HAP1 MTAP-deleted cell line
[7] = HAP1, read-out: Hap1 MTAP intact IC50, SDMA in-cell western, HAP1 MTAP-intact cell line

Structure (SMILES)	IC50 [3, 5]	IC90 [3, 6]	IC50 ([1]; HAP1, read-out: Hap1 MTAP intact IC50, SDMA in-cell western assay, HAP1 MTAP-intact cell line)	IC50 ([3]; HAP1, read-out: Hap1 MTAP deleted IC50, SDMA in-cell western assay, HAP1 MTAP-deleted cell line)	IC90 ([3]; HAP1, read-out: Hap1 MTAP deleted IC90, SDMA in-cell western assay, HAP1 MTAP-deleted cell line)	IC50 [1, 7]	IC50 [1, 4]	IC50 [2]	Hap1 MTAP intact/deleted ratio ([3]; SDMA in-cell western)	Hap1 MTAP intact/deleted ratio ([3]; SDMA in-cell western assay)
C[C@H]1CC[C@H](c2ccc3scnc3c2)N(C(=O)C(=O)Nc2cncc3cn[nH]c23)C1 [Compound 26, 2-((2R,5S)-2-(benzo[d]thiazol-5-yl)-5-methylpiperidin-1-yl)-2-oxo-N-(1H-pyrazolo[4,3-c]pyridin-7-yl)acetamide]	5 to 50 nM	> 125 nM	–	–	–	–	> 50 nM	100 to 1000 nM	A (“A” indicates an IC50 ratio greater than or equal to 30 fold)	–
C[C@H]1CC[C@H](c2cccc(CCN(C)C)c2)N(C(=O)C(=O)Nc2cnc(N)c3c2cnn3C)C1 [Compound 197, N-(7-Amino-1-methyl-pyrazolo[3,4-c]pyridin-4-yl)-2-oxo-2-[(2R,5S)-2-[3-[2-(dimethylamino)ethyl]phenyl]-5-methyl-1-piperidyl]acetamide]	–	–	5 to 50 nM	< 5 nM	< 75 nM	–	–	< 100 nM	–	C (“C” indicates an IC50 ratio of less than 15 fold)
C[C@H]1CC[C@H](c2cccc(C(F)(F)F)c2)N(C(=O)C(=O)Nc2cnc(N)c3cn[nH]c23)C1 [Compound 138, N-(4-amino-1H-pyrazolo[4,3-c]pyridin-7-yl)-2-((2R,5S)-5-methyl-2-(3-(trifluoromethyl)phenyl)piperidin-1-yl)-2-oxoacetamide]	5 to 50 nM	< 75 nM	–	–	–	> 50 nM	–	< 100 nM	A (“A” indicates an IC50 ratio greater than or equal to 30 fold)	–
C[C@H]1CC[C@H](c2ccc3sc(C4CCN(C)CC4)nc3c2)N(C(=O)C(=O)Nc2cncc3cn[nH]c23)C1 [Compound 94, 2-oxo-N-(1H-pyrazolo[4,3-c]pyridin-7-yl)-2-[(2R,5S)-5-methyl-2-[2-(1-methyl-4-piperidyl)-1,3-benzothiazol-5-yl]-1-piperidyl]acetamide]	< 5 nM	< 75 nM	–	–	–	–	5 to 50 nM	< 100 nM	B (“B” indicates an IC50 ratio greater than or equal to 15 fold but lower than 30 fold)	–

Now from value to compound, other results behind:

IC50 [3, 5]	IC90 [3, 6]	IC50 ([1]; HAP1, read-out: Hap1 MTAP intact IC50, SDMA in-cell western assay, HAP1 MTAP-intact cell line)	IC50 ([3]; HAP1, read-out: Hap1 MTAP deleted IC50, SDMA in-cell western assay, HAP1 MTAP-deleted cell line)	IC90 ([3]; HAP1, read-out: Hap1 MTAP deleted IC90, SDMA in-cell western assay, HAP1 MTAP-deleted cell line)	IC50 [1, 7]	Structure (SMILES)	IC50 [1, 4]	IC50 [2]	Hap1 MTAP intact/deleted ratio ([3]; SDMA in-cell western)	Hap1 MTAP intact/deleted ratio ([3]; SDMA in-cell western assay)
< 5 nM	< 75 nM	–	–	–	5 to 50 nM	C[C@H]1CC[C@H](c2ccc3sc(CC4(C)CCN(C)CC4)nc3c2)N(C(=O)C(=O)Nc2cncc3cn[nH]c23)C1 [Compound 142, 2-((2R,5S)-2-(2-((1,4-dimethylpiperidin-4-yl)methyl)benzo[d]thiazol-5-yl)-5-methylpiperidin-1-yl)-2-oxo-N-(1H-pyrazolo[4,3-c]pyridin-7-yl)acetamide]	–	< 100 nM	B (“B” indicates an IC50 ratio greater than or equal to 15 fold but lower than 30 fold)	–
5 to 50 nM	> 125 nM	–	–	–	> 50 nM	C[C@H]1CC[C@H](c2ccc3nn(C4CCN(C)CC4)cc3c2)N(C(=O)C(=O)Nc2cncc3c(N)nccc23)C1 [Compound 51, N-(8-amino-2,7-naphthyridin-4-yl)-2-oxo-2-[(2R,5S)-5-methyl-2-[2-(1-methyl-4-piperidyl)indazol-5-yl]-1-piperidyl]acetamide]	–	100 to 1000 nM	A (“A” indicates an IC50 ratio greater than or equal to 30 fold)	–
5 to 50 nM	< 75 nM	–	–	–	> 50 nM	C[C@H]1CC[C@H](c2ccc3sc([C@@H](C)CN(C)C)nc3c2)N(C(=O)C(=O)Nc2cncc3c(N)nccc23)C1 (relative stereo) [Compound 76, N-(8-amino-2,7-naphthyridin-4-yl)-2-((2R,5S)-2-(2-((S)-1-(dimethylamino)propan-2-yl)benzo[d]thiazol-5-yl)-5-methylpiperidin-1-yl)-2-oxoacetamide]	–	< 100 nM	A (“A” indicates an IC50 ratio greater than or equal to 30 fold)	–
< 5 nM	< 75 nM	–	–	–	5 to 50 nM	C[C@H]1CC[C@H](c2ccc3sc(C4CCN(C)CC4)nc3c2)N(C(=O)C(=O)Nc2cncc3[nH]ncc23)C1 (single isomer, unassigned) [Compound 43]	–	< 100 nM	C (“C” indicates an IC50 ratio of less than 15 fold)	–
